Twelve compounds from PubChem BioAssay (NCI) can be followed below.

Values joined by “and” are separate entries in the source; they are usually repeats but may differ in a detail not shown here. Identical values can stand only once.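 Method: 48-hour compound exposure of cells in 96-well plates, five concentrations, linear interpolation of endpoints. At the GI50, growth is halved. TGI: total growth inhibition.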

In one assay the test system is HCT-116 colon. In words: NCI-60 cell line screen, 48 h.
Consider `Cc1ccc2c(C)c3c(ccc4ccccc43)c[n+]2c1`, for which the GI50 was 17.3 µM and the TGI stood at 78.7 µM.
Consider `COC(=O)/C=C1\S/C(=N\NC(=O)c2cc3ccc2/C=C\c2ccc(cc2)/C=C\3)N(c2ccccc2)C1=O`, for which the GI50 is 1.79 µM and the TGI turned out to be 3.67 µM.
Regarding `Fc1ccc(NC(=S)SCc2ccc3c(c2)OCO3)cc1F`, the TGI is > 100 µM.
On the same count and under the same terms, the value for `Cc1ccsc1C(=S)Nc1ccc(Cl)c(/C=N/OC(C)(C)C)c1` was > 100 µM.
For the compound `COc1cc2c(c(OC)c1OC)-c1ccc(NNC(N)=S)c(=O)cc1[C@@H](NC(C)=O)CC2`, the GI50 was 0.348 µM and the TGI is > 32.6 µM.
Turning to `CCOC(=O)Cn1c(C(F)(F)F)nc2nc(Cl)c(Cl)nc21`, the TGI was > 100 µM.
With `O=C1NC(=NCCc2cccc(F)c2)S/C1=C\c1ccc2ncccc2c1`, the GI50 is 1.3 µM and the TGI was > 25 µM.
As to `COc1cc2c(c3oc4c(O)cccc4c(=O)c13)CC(C(C)(O)CO)O2` (centres undefined), the TGI was > 100 µM.
Consider `OCc1cc2ccccc2c2c3c(ccc12)OCO3`, for which the GI50 is 30.6 µM and the TGI stood at 149 µM.
For `COc1cc2c(cc1OCCCCN1CCN(CC(=O)Nc3ccc(Cl)cc3C(=O)c3ccccc3Cl)CC1)N=CC1CCCN1C2=O` (centres undefined) the same measures were 0.225 µM and 0.664 µM.
As for `OC1CSSC1Cn1cnc2c(Nc3ccc(OCc4cccc(F)c4)c(Cl)c3)ncnc21` (centres undefined), the GI50 is 0.687 µM and the TGI was 3.84 µM.
Consider `C[C@@H](Oc1cc(-n2cnc3ccc(CN4CCN(C)CC4)cc32)sc1C(N)=O)c1ccccc1C(F)(F)F`, for which the GI50 was < 0.0125 µM and 0.0139 µM; the TGI is 12.9 µM and > 10 µM.

Another assay deals with MCF7 breast. The experiment in a line: NCI-60 cell line screen, 48 h.
As for `Cc1ccc2c(C)c3c(ccc4ccccc43)c[n+]2c1`, the GI50 is 0.629 µM and the TGI is 25.9 µM.
On to `COC(=O)/C=C1\S/C(=N\NC(=O)c2cc3ccc2/C=C\c2ccc(cc2)/C=C\3)N(c2ccccc2)C1=O`, for which the GI50 is 1.87 µM and the TGI turned out to be 4.95 µM.
With `Fc1ccc(NC(=S)SCc2ccc3c(c2)OCO3)cc1F`, the TGI turned out to be 36.2 µM.
On to `Cc1ccsc1C(=S)Nc1ccc(Cl)c(/C=N/OC(C)(C)C)c1`, for which the TGI was > 100 µM.
With `COc1cc2c(c(OC)c1OC)-c1ccc(NNC(N)=S)c(=O)cc1[C@@H](NC(C)=O)CC2`, the GI50 was 0.372 µM and the TGI was > 100 µM.
For the compound `CCOC(=O)Cn1c(C(F)(F)F)nc2nc(Cl)c(Cl)nc21`, the TGI was > 87.4 µM.
For the compound `O=C1NC(=NCCc2cccc(F)c2)S/C1=C\c1ccc2ncccc2c1`, the GI50 was 0.766 µM and the TGI was > 25 µM.
`COc1cc2c(c3oc4c(O)cccc4c(=O)c13)CC(C(C)(O)CO)O2` (centres undefined): the TGI turned out to be 70.8 µM.
Regarding `OCc1cc2ccccc2c2c3c(ccc12)OCO3`, the GI50 was 26.5 µM and the TGI was 125 µM.
Take `COc1cc2c(cc1OCCCCN1CCN(CC(=O)Nc3ccc(Cl)cc3C(=O)c3ccccc3Cl)CC1)N=CC1CCCN1C2=O` (centres undefined): the GI50 is 0.167 µM and the TGI is 0.567 µM.
Take `OC1CSSC1Cn1cnc2c(Nc3ccc(OCc4cccc(F)c4)c(Cl)c3)ncnc21` (centres undefined): the GI50 was 0.509 µM and the TGI amounted to 1.29 µM.
For the compound `C[C@@H](Oc1cc(-n2cnc3ccc(CN4CCN(C)CC4)cc32)sc1C(N)=O)c1ccccc1C(F)(F)F`, the GI50 is < 0.01 µM and 0.00478 µM; the TGI was 15.2 µM and > 10 µM.

The subject of a further assay is UACC-257 melanoma. The experiment in a line: NCI-60 cell line screen, 48 h.
For the compound `Cc1ccc2c(C)c3c(ccc4ccccc43)c[n+]2c1`, the GI50 is 10.4 µM and the TGI came out at 77.1 µM.
Consider `COC(=O)/C=C1\S/C(=N\NC(=O)c2cc3ccc2/C=C\c2ccc(cc2)/C=C\3)N(c2ccccc2)C1=O`, for which the GI50 is 5.14 µM and the TGI is > 100 µM.
Compound `Fc1ccc(NC(=S)SCc2ccc3c(c2)OCO3)cc1F` registered a TGI of 64 µM.
For `Cc1ccsc1C(=S)Nc1ccc(Cl)c(/C=N/OC(C)(C)C)c1`, the TGI amounted to 69.1 µM.
As to `COc1cc2c(c(OC)c1OC)-c1ccc(NNC(N)=S)c(=O)cc1[C@@H](NC(C)=O)CC2`, the TGI was > 100 µM.
The compound `CCOC(=O)Cn1c(C(F)(F)F)nc2nc(Cl)c(Cl)nc21` displayed a TGI of 53.4 µM.
As for `O=C1NC(=NCCc2cccc(F)c2)S/C1=C\c1ccc2ncccc2c1`, the GI50 was 9.61 µM and the TGI was > 25 µM.
As to `COc1cc2c(c3oc4c(O)cccc4c(=O)c13)CC(C(C)(O)CO)O2` (centres undefined), the TGI is > 100 µM.
As for `OCc1cc2ccccc2c2c3c(ccc12)OCO3`, the GI50 was 28.1 µM and the TGI was found to be 82.3 µM.
On to `COc1cc2c(cc1OCCCCN1CCN(CC(=O)Nc3ccc(Cl)cc3C(=O)c3ccccc3Cl)CC1)N=CC1CCCN1C2=O` (centres undefined), for which the GI50 was 0.2 µM and the TGI was determined as 0.575 µM.
With `OC1CSSC1Cn1cnc2c(Nc3ccc(OCc4cccc(F)c4)c(Cl)c3)ncnc21` (centres undefined), the GI50 is 4.09 µM and the TGI amounted to 15.4 µM.
Take `C[C@@H](Oc1cc(-n2cnc3ccc(CN4CCN(C)CC4)cc32)sc1C(N)=O)c1ccccc1C(F)(F)F`: the GI50 was 2.03 µM and the TGI was > 10 µM.

A further assay concerns OVCAR-3 ovarian. In words: NCI-60 cell line screen, 48 h.
As to `Cc1ccc2c(C)c3c(ccc4ccccc43)c[n+]2c1`, the GI50 is 2.64 µM and the TGI is 16.8 µM.
Consider `COC(=O)/C=C1\S/C(=N\NC(=O)c2cc3ccc2/C=C\c2ccc(cc2)/C=C\3)N(c2ccccc2)C1=O`, for which the GI50 was 1.8 µM and the TGI amounted to 3.61 µM.
For the compound `Fc1ccc(NC(=S)SCc2ccc3c(c2)OCO3)cc1F`, the TGI was > 100 µM.
`Cc1ccsc1C(=S)Nc1ccc(Cl)c(/C=N/OC(C)(C)C)c1`: the TGI is > 100 µM.
As to `COc1cc2c(c(OC)c1OC)-c1ccc(NNC(N)=S)c(=O)cc1[C@@H](NC(C)=O)CC2`, the GI50 was 0.238 µM and the TGI worked out at 0.623 µM.
Regarding `CCOC(=O)Cn1c(C(F)(F)F)nc2nc(Cl)c(Cl)nc21`, the TGI came out at 54.2 µM.
On to `O=C1NC(=NCCc2cccc(F)c2)S/C1=C\c1ccc2ncccc2c1`, for which the GI50 is 1.76 µM and the TGI was > 25 µM.
Turning to `COc1cc2c(c3oc4c(O)cccc4c(=O)c13)CC(C(C)(O)CO)O2` (centres undefined), the TGI was > 100 µM.
On to `OCc1cc2ccccc2c2c3c(ccc12)OCO3`, for which the GI50 was 36.4 µM and the TGI stood at 168 µM.
Consider `COc1cc2c(cc1OCCCCN1CCN(CC(=O)Nc3ccc(Cl)cc3C(=O)c3ccccc3Cl)CC1)N=CC1CCCN1C2=O` (centres undefined), for which the GI50 is 0.197 µM and the TGI worked out at 0.435 µM.
Consider `OC1CSSC1Cn1cnc2c(Nc3ccc(OCc4cccc(F)c4)c(Cl)c3)ncnc21` (centres undefined), for which the GI50 was 0.748 µM and the TGI was determined as 1.93 µM.
In the case of `C[C@@H](Oc1cc(-n2cnc3ccc(CN4CCN(C)CC4)cc32)sc1C(N)=O)c1ccccc1C(F)(F)F`, the GI50 was < 0.0152 µM and 0.00528 µM; the TGI is 16.7 µM and > 10 µM.

The test system of another assay is IGROV1 ovarian. In words: NCI-60 cell line screen, 48 h.
Regarding `Cc1ccc2c(C)c3c(ccc4ccccc43)c[n+]2c1`, the GI50 was 9.28 µM and the TGI worked out at 80.1 µM.
For `COC(=O)/C=C1\S/C(=N\NC(=O)c2cc3ccc2/C=C\c2ccc(cc2)/C=C\3)N(c2ccccc2)C1=O`, the GI50 is 1.66 µM and the TGI was 3.27 µM.
Compound `Fc1ccc(NC(=S)SCc2ccc3c(c2)OCO3)cc1F` returned a TGI of 39.6 µM.
The same measure, in the same setting: the value for `Cc1ccsc1C(=S)Nc1ccc(Cl)c(/C=N/OC(C)(C)C)c1` was > 100 µM.
On to `COc1cc2c(c(OC)c1OC)-c1ccc(NNC(N)=S)c(=O)cc1[C@@H](NC(C)=O)CC2`, for which the GI50 is 1.18 µM and the TGI was > 100 µM.
As for `CCOC(=O)Cn1c(C(F)(F)F)nc2nc(Cl)c(Cl)nc21`, the TGI is > 76.6 µM.
Consider `O=C1NC(=NCCc2cccc(F)c2)S/C1=C\c1ccc2ncccc2c1`, for which the GI50 was 5.15 µM and the TGI is > 25 µM.
Take `COc1cc2c(c3oc4c(O)cccc4c(=O)c13)CC(C(C)(O)CO)O2` (centres undefined): the TGI is > 100 µM.
Regarding `OCc1cc2ccccc2c2c3c(ccc12)OCO3`, the GI50 is 33.6 µM and the TGI was 111 µM.
With `COc1cc2c(cc1OCCCCN1CCN(CC(=O)Nc3ccc(Cl)cc3C(=O)c3ccccc3Cl)CC1)N=CC1CCCN1C2=O` (centres undefined), the GI50 is 0.229 µM and the TGI amounted to 0.519 µM.
For `OC1CSSC1Cn1cnc2c(Nc3ccc(OCc4cccc(F)c4)c(Cl)c3)ncnc21` (centres undefined) the same measures were 4.46 µM and 13.6 µM.
As to `C[C@@H](Oc1cc(-n2cnc3ccc(CN4CCN(C)CC4)cc32)sc1C(N)=O)c1ccccc1C(F)(F)F`, the GI50 is 0.0621 µM and 0.0336 µM; the TGI was 15.1 µM and > 10 µM.
